Tested on: 171881-019-R-J1-PDC complex spheroid viability
Assay: Anticancer human tumor 171881-019-R-J1-PDC patient-derived invasive breast carcinoma cell line growth inhibition
Conditions: for IC50: curve of first compound; for viability, T/C: stronger effect = lower value
Method in brief: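 Complex spheroids of tumor cells with HUVEC and human MSCs, exposed to iadademstat combined with other agents. Each agent tested in half-log steps from near clinical Cmax (else 10 microM top), DMSO ≤0.25%.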

[1] = second compound 0.1 µM, first compound 0.00949 µM
[2] = second compound 0.1 µM, first compound 0.03 µM
[3] = second compound 0.1 µM, first compound 0.0949 µM
[4] = second compound 0.1 µM, first compound 0.3 µM
[5] = second compound 0.316 µM, first compound 0.00949 µM
[6] = second compound 0.316 µM, first compound 0.03 µM
[7] = second compound 0.316 µM, first compound 0.0949 µM
[8] = second compound 0.316 µM, first compound 0.3 µM
[9] = second compound 1 µM, first compound 0.00949 µM
[10] = second compound 1 µM, first compound 0.03 µM
[11] = second compound 1 µM, first compound 0.0949 µM
[12] = second compound 1 µM, first compound 0.3 µM
[13] = second compound 3.16 µM, first compound 0.00949 µM
[14] = second compound 3.16 µM, first compound 0.03 µM
[15] = second compound 3.16 µM, first compound 0.0949 µM
[16] = second compound 3.16 µM, first compound 0.3 µM
[17] = second compound 10 µM, first compound 0.00949 µM
[18] = second compound 10 µM, first compound 0.03 µM
[19] = second compound 10 µM, first compound 0.0949 µM
[20] = second compound 10 µM, first compound 0.3 µM

## Nc1ncn(C2CC(O)C(CO)S2)c(=O)n1 (stereo not given) + NC1CCC(NC2CC2c2ccccc2)CC1
Second compound 0.1 µM
  IC50: 193 nM
Second compound 0.316 µM
  IC50: 175 nM
Second compound 1 µM
  IC50: 192 nM
Second compound 3.16 µM
  IC50: 202 nM
Second compound 10 µM
  IC50: 229 nM
Second compound 0.1 µM, first compound 0.000949 µM
  viability, T/C: 85.7%
Second compound 0.1 µM, first compound 0.003 µM
  viability, T/C: 82.5%
[1]
  viability, T/C: 94.3%
[2]
  viability, T/C: 105%
[3]
  viability, T/C: 70.9%
[4]
  viability, T/C: 37.2%
Second compound 0.316 µM, first compound 0.000949 µM
  viability, T/C: 91.2%
Second compound 0.316 µM, first compound 0.003 µM
  viability, T/C: 75.8%
[5]
  viability, T/C: 90.9%
[6]
  viability, T/C: 116%
[7]
  viability, T/C: 66.4%
[8]
  viability, T/C: 35.7%
Second compound 1 µM, first compound 0.000949 µM
  viability, T/C: 73.4%
Second compound 1 µM, first compound 0.003 µM
  viability, T/C: 84%
[9]
  viability, T/C: 94.8%
[10]
  viability, T/C: 101%
[11]
  viability, T/C: 66.8%
[12]
  viability, T/C: 39.3%
Second compound 3.16 µM, first compound 0.000949 µM
  viability, T/C: 85.1%
Second compound 3.16 µM, first compound 0.003 µM
  viability, T/C: 87.5%
[13]
  viability, T/C: 111%
[14]
  viability, T/C: 109%
[15]
  viability, T/C: 66.6%
[16]
  viability, T/C: 41.3%
Second compound 10 µM, first compound 0.000949 µM
  viability, T/C: 85.4%
Second compound 10 µM, first compound 0.003 µM
  viability, T/C: 90.8%
[17]
  viability, T/C: 98.8%
[18]
  viability, T/C: 93.8%
[19]
  viability, T/C: 69.1%
[20]
  viability, T/C: 44.1%

## COc1cc(C2c3cc4c(cc3C(OC3OC5COC(C)OC5C(O)C3O)C3COC(=O)C23)OCO4)cc(OC)c1O (stereo not given) + NC1CC1c1ccc(-c2cccc(O)c2)cc1
Second compound 0.1 µM
  IC50: 753 nM
Second compound 0.316 µM
  IC50: 1010 nM
Second compound 1 µM
  IC50: 793 nM
Second compound 3.16 µM
  IC50: 554 nM
Second compound 10 µM
  IC50: 406 nM
[1]
  viability, T/C: 102%
[2]
  viability, T/C: 97%
[3]
  viability, T/C: 74%
[4]
  viability, T/C: 64%
Second compound 0.1 µM, first compound 0.949 µM
  viability, T/C: 48.3%
Second compound 0.1 µM, first compound 3 µM
  viability, T/C: 29.2%
[5]
  viability, T/C: 105%
[6]
  viability, T/C: 101%
[7]
  viability, T/C: 80.8%
[8]
  viability, T/C: 69.6%
Second compound 0.316 µM, first compound 0.949 µM
  viability, T/C: 51.4%
Second compound 0.316 µM, first compound 3 µM
  viability, T/C: 33.3%
[9]
  viability, T/C: 105%
[10]
  viability, T/C: 95.3%
[11]
  viability, T/C: 84.9%
[12]
  viability, T/C: 66.4%
Second compound 1 µM, first compound 0.949 µM
  viability, T/C: 46.9%
Second compound 1 µM, first compound 3 µM
  viability, T/C: 28.1%
[13]
  viability, T/C: 103%
[14]
  viability, T/C: 99.9%
[15]
  viability, T/C: 78.7%
[16]
  viability, T/C: 59%
Second compound 3.16 µM, first compound 0.949 µM
  viability, T/C: 43.6%
Second compound 3.16 µM, first compound 3 µM
  viability, T/C: 27.9%
[17]
  viability, T/C: 84.3%
[18]
  viability, T/C: 78.2%
[19]
  viability, T/C: 69.1%
[20]
  viability, T/C: 51.3%
Second compound 10 µM, first compound 0.949 µM
  viability, T/C: 41.4%
Second compound 10 µM, first compound 3 µM
  viability, T/C: 27.4%

## O=C(C=Cn1cnc(-c2cc(C(F)(F)F)cc(C(F)(F)F)c2)n1)NNc1cnccn1 + NC1CC1c1ccc(-c2cccc(O)c2)cc1
Second compound 0.1 µM
  IC50: < 3.16 nM
Second compound 0.316 µM
  IC50: < 3.16 nM
Second compound 1 µM
  IC50: < 3.16 nM
Second compound 3.16 µM
  IC50: < 3.16 nM
Second compound 10 µM
  IC50: < 3.16 nM
Second compound 0.1 µM, first compound 0.00316 µM
  viability, T/C: 19.1%
Second compound 0.1 µM, first compound 0.01 µM
  viability, T/C: 13%
Second compound 0.1 µM, first compound 0.0316 µM
  viability, T/C: 4.97%
Second compound 0.1 µM, first compound 0.1 µM
  viability, T/C: 2.14%
Second compound 0.1 µM, first compound 0.316 µM
  viability, T/C: 2.1%
Second compound 0.1 µM, first compound 1 µM
  viability, T/C: 1.99%
Second compound 0.316 µM, first compound 0.00316 µM
  viability, T/C: 21.3%
Second compound 0.316 µM, first compound 0.01 µM
  viability, T/C: 14.4%
Second compound 0.316 µM, first compound 0.0316 µM
  viability, T/C: 5.36%
Second compound 0.316 µM, first compound 0.1 µM
  viability, T/C: 2.27%
Second compound 0.316 µM, first compound 0.316 µM
  viability, T/C: 2.08%
Second compound 0.316 µM, first compound 1 µM
  viability, T/C: 1.91%
Second compound 1 µM, first compound 0.00316 µM
  viability, T/C: 23.4%
Second compound 1 µM, first compound 0.01 µM
  viability, T/C: 16.1%
Second compound 1 µM, first compound 0.0316 µM
  viability, T/C: 9.98%
Second compound 1 µM, first compound 0.1 µM
  viability, T/C: 2.64%
Second compound 1 µM, first compound 0.316 µM
  viability, T/C: 2.11%
Second compound 1 µM, first compound 1 µM
  viability, T/C: 1.82%
Second compound 3.16 µM, first compound 0.00316 µM
  viability, T/C: 25.9%
Second compound 3.16 µM, first compound 0.01 µM
  viability, T/C: 17.5%
Second compound 3.16 µM, first compound 0.0316 µM
  viability, T/C: 5.43%
Second compound 3.16 µM, first compound 0.1 µM
  viability, T/C: 2.42%
Second compound 3.16 µM, first compound 0.316 µM
  viability, T/C: 2.5%
Second compound 3.16 µM, first compound 1 µM
  viability, T/C: 2.17%
Second compound 10 µM, first compound 0.00316 µM
  viability, T/C: 25%
Second compound 10 µM, first compound 0.01 µM
  viability, T/C: 16.5%
Second compound 10 µM, first compound 0.0316 µM
  viability, T/C: 6.08%
Second compound 10 µM, first compound 0.1 µM
  viability, T/C: 11.4%
Second compound 10 µM, first compound 0.316 µM
  viability, T/C: 6.91%
Second compound 10 µM, first compound 1 µM
  viability, T/C: 3.16%
